# Measured values reported in patent US20130028849A1, “Agent For Stimulating The Expression of Loxl” (BASF Beauty Care Solutions France S.A.S., priority 2009, published 2013).
# Values joined by “and” are separate entries in the source; they are usually repeats but may differ in a detail not shown here. Identical values can stand only once.
# How the values were obtained:
# [1] = Lipid peroxidation test (TBARS assay, UV-induced peroxidation); format: biochemical; details: 1% (w/w)
# Method: The radical scavenger effect was evaluated: • using the standard test with DPPH (1,1-diphenyl-2-picrylhydrazyl) the principle of which is the measurement of the bleaching induced in the presence of anti oxidants; • by the lipid peroxidation method. The TBArs technique means that malondialdehyde (MDA), one of the terminal products formed during the decomposition of polyunsaturated fatty acids mediated by free radicals, can be assayed. It is assayed by condensation in an acidic medium with hot thiobarbituric acid (TBA), thereby forming a pink chromogen which absorbs strongly between 530 and 535 nm. […] The intensity of the colour is directly proportional to the quantity of MDA. The inhibition of UV-induced peroxidation during incorporation of an active agent allows its anti-oxidizing potential to be calculated.
# A 5% liposomal suspension was prepared in deionized water. […] A “blank” was also deposited on a non-irradiated control plate for the spectrophotometer reading (water), the non-irradiated positive control measurements and the non-irradiated test measurements (active agent tested at different concentrations). […]
# The percentage inhibition was calculated for each test product with respect to the negative control (=100% of generated free radicals meaning 0% anti-free-radicals effect)
# LOXL = assay: Expression of LOXL gene by quantitative RT-PCR in normal human fibroblasts; format: cell-based; details: IL-1b treated fibroblasts, untreated non-irradiated = 1
# Method: The expression of genes for elastin and LOXL was measured using quantitative RT-PCR under standard culture conditions or after irradiation with increasing doses of UVB or UVA. Their level of expression has been related to the number of cells using the housekeeping gene actin. Expression of the LOXL gene was also followed by quantitative RT-PCR under non-irradiated conditions after application for 24 hours of a Geophila cordifolia extract obtained according to process 1a) at 1%.
# (§1) Normal human fibroblasts (NH F) cultivated in a FGM medium (fibroblast growth medium, Promocell) were exposed to a UV stress. A Fisher Bioblock type UVA or UVB source with an electric power of 0.3 mW/cm^2 was used. The UV dose was monitored using a radiometer (VLX 3W) and a CX-312 probe for UVB or a CX-365 probe for UVA. Various UV irradiation conditions were evaluated: For a wavelength of λ=312 nm (UVB) • UVB 5 mJ/cm^2, the exposure time was 30 seconds; • UVB 10 mJ/cm^2, the exposure time was 1 minute;
# (§2) Total RNA from the monolayer culture was extracted with the SV96 Total RNA Isolation System® following the manufacturer's instructions. The total RNA was eluted in 100 μl of nuclease-free water and quantified using a spectrophotometer at 260 nm (Molecular Devices Spectramax 190). […]
# A quantity of 50 ng of total RNA was amplified by Real Time RT-PCR (Quantitek Sybr Green® kit). […]
# elastin = assay: Expression of elastin gene by quantitative RT-PCR in normal human fibroblasts; format: cell-based; details: IL-1b treated fibroblasts, untreated non-irradiated = 1
# Method: Their level of expression has been related to the number of cells using the housekeeping gene actin. Expression of the LOXL gene was also followed by quantitative RT-PCR under non-irradiated conditions after application for 24 hours of a Geophila cordifolia extract obtained according to process 1a) at 1%.
# as §1, §2
# A quantity of 50 ng of total RNA was amplified by Real Time RT-PCR (Quantitek Sybr Green® kit). The primers used in the RT-PCR experiments (semi-quantitative or real time) were as follows: […]
# type I collagen = assay: Fluorescent immunostaining of type I collagen on monolayer cultured fibroblasts; format: cell-based, human; details: 50 μg/ml
# Method: Immunofluorescence makes it possible to observe different markers expressed by cells via the use of antibody recognizing these markers. In first step, cells were fixed in cold methanol for 10 minutes. After washing with PBS, antigenic aspecific sites were then blocked for 1 hour with PBS-BSA 1% solution (Bovine serum albumin). Primary antibody diluted at 1% in PBS/BSA 1% was incubated with cells for 1 hour. On the negative control is added IgG control isotope (instead of primary antibody). The excess of anti-body which has not been attached is removed by 2 washings with PBS. Cells were incubated out of light with a solution of secondary antibodies able to recognize primary antibody. This secondary antibody being linked with fluorochrome (Alexa Fluor 488), it makes it possible to see protein with florescent microscopy. Cells were then gently washed 3 times with PBS, and slides covered with mounting medium containing DAPI (Vector®, Vectashield), a nuclear colouring agent. Slides were stored out of light to maintain fluorescence of fluorochrome and analysed with confocal microscopy. Antibodies used in this test were: • primary antibody: collagen 1: rabbit anti-human type I collagen, polyclonal, diluted 1/200 (Novotech 20111) • primary antibody: Isotype IgG1: rabbit IgG1 isotype, ready to use (Zymed Laboratories 08-6199) • secondary antibody: goat anti-rabbit IgG coupled with Alexa fluor 488, polyclonal, diluted 1/1000 (in Vitrogen A11008) Cells used for immunostaining were obtained from fibroblasts from donor […]. Geophila cordifolia obtained according to example 1c) was tested at 1% (diluted in water). Fluorescent Immunostaining of type I collagen on monolayer cultured fibroblasts treated with vegetal extract obtained from example 1c) (magnification 400×, scale bar=25 μm).
# [2] = DPPH test (radical scavenger effect); format: biochemical; details: for radical scavenging activity (DPPH test), Mean: Example 8 series, in %; for anti-free-radicals effect (% vs negative control): DPPH test
# MMP-12 = MMP-12 (Homo sapiens, UniProt P39900); assay: Anti-MMP activity, kinetic test with thiopeptide substrate, MMP-12; format: biochemical
# Method: (§3) Anti-MMP activity was evaluated on matrix metalloproteases MMP-2 and MMP-12.
# (§4) The substrat of MMPs is thiopeptide [Ac-PLG-2mercapto-4-methyl-pentanoyl)-LG-OC2H5] (EnzoLifeSciences, P125-9090). The test is carried out in 96-well plates. Different medium are prepared: A <> containing assay buffer and the substrate—Value obtained with blank was deduced from all other conditions. Positive control, NNGH (EnzoLifeSciences, PI 115-9090), which is metalloproteinase inhibitor, diluted at 1/200 in assay buffer. Untreated control, containing assay buffer, MMP and the substrate: this corresponds to 100% MMP activity.
# (§5) Other conditions contain assay buffer, MMP, the substrate and the solution to be tested. After 45 min preincubation at 37° C. (to get interaction between MMP and tested product: tested solution or positive control), substrate is added and plate is immediately placed in Plate reader for kinetic measurement of absorbance at 405 nm (maximum absorbance of coloured product resulting from degradation of substrate by MMP). Full plate is read each minute during 20 minutes. After 20 min, a curve reflecting kinetic evolution of MMPs activity is obtained.
# (§6) In the linear phase, the slope of the curve provides with MMP activity. The percentage inhibition was calculated with respect to the untreated control according to the formula:
# (§7) Inhibition percentage=100−((slope of tested product/Mean of the untreated control slopes)*100)
# (§8) This test was performed on MMP-2 and MMP-12. Tested solution containing Geophila cordifiolia extract was obtained according to example 1c) and tested at different concentration.
# (§9) Tests used were performed in the same conditions than above described with Geophila cordifolia. Extract of Geophila repens was obtained according to example 7a) and tested at different concentrations.
# MMP-2 = target: T1, MMP-2 (Homo sapiens, UniProt P08253); assay: Anti-MMP activity, kinetic test with thiopeptide substrate, MMP-2; format: biochemical
# T1 sequence (P08253 110-660): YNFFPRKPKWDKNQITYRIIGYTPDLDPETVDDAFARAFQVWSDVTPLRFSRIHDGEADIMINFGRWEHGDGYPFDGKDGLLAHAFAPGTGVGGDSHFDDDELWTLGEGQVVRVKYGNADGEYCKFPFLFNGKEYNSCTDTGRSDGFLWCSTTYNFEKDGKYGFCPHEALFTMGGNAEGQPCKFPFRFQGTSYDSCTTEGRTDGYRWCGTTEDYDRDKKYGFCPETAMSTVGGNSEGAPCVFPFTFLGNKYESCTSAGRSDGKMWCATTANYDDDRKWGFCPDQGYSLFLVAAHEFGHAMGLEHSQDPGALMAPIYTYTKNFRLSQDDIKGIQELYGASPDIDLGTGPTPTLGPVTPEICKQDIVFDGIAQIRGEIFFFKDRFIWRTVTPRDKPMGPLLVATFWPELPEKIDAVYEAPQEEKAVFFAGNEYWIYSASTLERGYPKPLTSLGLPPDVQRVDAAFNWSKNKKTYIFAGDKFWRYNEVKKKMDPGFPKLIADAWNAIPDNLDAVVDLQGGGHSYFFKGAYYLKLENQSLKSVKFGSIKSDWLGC
# Method: as §3, §4, §5, §6, §7, §8, §9
# [3] = target: T2, HLE (Human Leucocyte Elastase) (Homo sapiens, UniProt P08246); assay: HLE test (anti-elastase activity, cleavage of coloured peptide substrate); format: biochemical
# T2 sequence (P08246 30-267): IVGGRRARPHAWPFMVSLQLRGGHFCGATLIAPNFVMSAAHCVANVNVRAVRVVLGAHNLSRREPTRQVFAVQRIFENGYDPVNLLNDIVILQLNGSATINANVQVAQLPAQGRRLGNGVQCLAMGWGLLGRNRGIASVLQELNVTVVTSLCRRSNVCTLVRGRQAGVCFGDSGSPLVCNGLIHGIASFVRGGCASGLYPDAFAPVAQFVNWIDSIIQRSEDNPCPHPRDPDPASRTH
# Method: The anti-elastase activity was evaluated using HLE (Human Leucocyte Elastase). […] The principle of this test resides in measuring the degree of cleavage of a coloured peptide substrate by HLE.
# The tested products were as follows: • the extract of the invention was prepared in accordance with Example 1a) tested at final concentrations of 0.5%, 1%, 2% and 3% (w/w); • a 0.01% (w/w) solution of ursolic acid was used as the positive inhibition control for inhibition; • no solution was used as the negative control (the reaction buffer for the enzyme replaces the tested product).
# The percentage inhibition was calculated for each test product with respect to the negative control (=100% activity i.e. 0% inhibition).
# as §9
# [4] = NNGH diluted at 1/200 in assay buffer
# [5] = positive control, Example 8 series
# Chain of MMP-12 (P39900 106-470): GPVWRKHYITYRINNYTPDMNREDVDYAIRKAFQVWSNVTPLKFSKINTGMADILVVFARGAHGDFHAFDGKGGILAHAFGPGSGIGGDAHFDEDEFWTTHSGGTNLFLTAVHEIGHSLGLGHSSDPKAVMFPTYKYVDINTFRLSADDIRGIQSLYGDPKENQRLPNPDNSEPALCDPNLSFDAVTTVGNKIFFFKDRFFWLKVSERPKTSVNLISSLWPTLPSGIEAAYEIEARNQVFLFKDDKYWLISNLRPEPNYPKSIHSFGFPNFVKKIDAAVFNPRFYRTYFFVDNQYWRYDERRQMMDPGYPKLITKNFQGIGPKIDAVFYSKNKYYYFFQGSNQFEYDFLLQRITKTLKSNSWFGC
compound,measurement,setting,value
vitamin E,anti-free-radicals effect (% vs negative control),[1],54.7%
IL-1b: IL-1b treatment group of fibroblasts in Table 6; not described in the method,"Gene/actin, LOXL",LOXL; single replicates,1.108 and 0.9779 and 1.139 and 1.246
same,"Gene/actin, LOXL, Mean",LOXL,1.12
same,"Gene/actin, ELN",elastin; single replicates,11.02 and 28.48 and 10.07 and 9.393
same,"Gene/actin, ELN, Mean",elastin,14.74
O=C1O[C@H]([C@@H](O)CO)C(O)=C1O [vitamin C],anisotropy of collagen type I fibres,type I collagen; day 3,high anisotropy
same,type I collagen labelling,type I collagen; day 3,"a fibrillar labelling, being more external to the cell"
same,anisotropy of collagen type I fibres,type I collagen; day 5,anisotropy is increased
same,type I collagen labelling,type I collagen; day 5,labelling is not so intense and fibres are more oriented in one way and thinner
"N[C@@H](CS)C(=O)O [Cysteine, cysteine]","radical scavenging activity (DPPH test), Mean",[2]; 2.5 mg/l,68.52
same,"radical scavenging activity (DPPH test), Mean",[2]; 5 mg/l,79.49
same,anti-free-radicals effect (% vs negative control),[2]; 2.5 mg/l,47.6%
same,anti-free-radicals effect (% vs negative control),[2]; 5 mg/l,83.1%
COc1ccc(S(=O)(=O)N(CC(=O)NO)CC(C)C)cc1 [NNGH],"MMP-12 inhibition, Mean (%)",MMP-12; [4],58.63^+++ %
same,inhibition of MMP-12 activity (in words),"MMP-12; positive control, 1/200",strongly and significantly inhibits
same,"anti-MMP 12 effect, mean",MMP-12; [5],72.5825
same,"MMP-2 inhibition, Mean (%)",MMP-2; [4],73.43^+++ %
same,inhibition of MMP-2 activity (in words),"MMP-2; positive control, 1/200",strongly and significantly inhibits
same,"anti-MMP2 effect, mean",MMP-2; [5],62.51
"C[C@H]1[C@H](C)CC[C@]2(C(=O)O)CC[C@]3(C)C(=CC[C@@H]4[C@@]5(C)CC[C@H](O)C(C)(C)[C@@H]5CC[C@]43C)[C@H]12 [Ursolic acid, ursolic acid]",HLE inhibition (%),[3]; 0.01% (w/w),85%
same,"anti-elastase activity (HLE test), mean","[3]; 0.01%, Example 8 series",90.47
